Data: the NIST ThermoML archive (doi:10.1021/acs.jced.8b00349)

Assays:
[1] = 101 kPa, Liquid, Falling or rolling sphere viscometry
[2] = mn = molality of the nth substance listed, in mol/kg; details: 101 kPa, Liquid; for viscosity: Falling or rolling sphere viscometry; for speed of sound: Frequency=3 MHz, Single path-length method; for mass density: Vibrating tube method

O [water]
[1]
Details | viscosity [mPa·s]
293.15 K | 1.005
298.15 K | 0.894
303.15 K | 0.801
308.15 K | 0.723
313.15 K | 0.656

NCC(=O)O [2-aminoacetic acid] + O
[2], m1 = 0.06
Details | mass density [kg/m3] | speed of sound [m/s] | viscosity [mPa·s]
293.15 K | 1000.19 | 1485.8 | 1.012
298.15 K | 999.024 | 1499.6 | 0.908
303.15 K | 997.613 | 1511.8 | 0.811
308.15 K | 995.985 | 1522.4 | 0.733
313.15 K | 994.125 | 1531.4 | 0.666

O [water] + C[n+]1ccn(CCCCCn2cc[n+](C)c2)c1.[Br-].[Br-]
[2], m2 = 0
Details | speed of sound [m/s] | viscosity [mPa·s]
293.15 K | – | 1.005
298.15 K | – | 0.894
303.15 K | – | 0.801
308.15 K | – | 0.723
313.15 K | 1529.2 | 0.656

O [water] + C[n+]1ccn(CCCn2cc[n+](C)c2)c1.[Br-].[Br-]
[2], m2 = 0
Details | speed of sound [m/s] | viscosity [mPa·s]
293.15 K | – | 1.005
298.15 K | – | 0.894
303.15 K | – | 0.801
308.15 K | – | 0.723
313.15 K | 1529.2 | 0.656

O [water] + C[n+]1ccn(CCCCn2cc[n+](C)c2)c1.[Br-].[Br-]
[2], m2 = 0
Details | speed of sound [m/s] | viscosity [mPa·s]
293.15 K | – | 1.005
298.15 K | – | 0.894
303.15 K | – | 0.801
308.15 K | – | 0.723
313.15 K | 1529.2 | 0.656
